Test results published in ChEMBL document CHEMBL1795321, “Synthesis and in vitro evaluation of ambrisentan analogues as potential endothelin receptor antagonists” (Bioorg Med Chem Lett, 2011).
Calls of active or inactive are those of the source. No cut-off for these calls is given here.

Target: T1, Endothelin receptor type A (Oryctolagus cuniculus) (UniProt A5A8K3)
T1 sequence (whole entry): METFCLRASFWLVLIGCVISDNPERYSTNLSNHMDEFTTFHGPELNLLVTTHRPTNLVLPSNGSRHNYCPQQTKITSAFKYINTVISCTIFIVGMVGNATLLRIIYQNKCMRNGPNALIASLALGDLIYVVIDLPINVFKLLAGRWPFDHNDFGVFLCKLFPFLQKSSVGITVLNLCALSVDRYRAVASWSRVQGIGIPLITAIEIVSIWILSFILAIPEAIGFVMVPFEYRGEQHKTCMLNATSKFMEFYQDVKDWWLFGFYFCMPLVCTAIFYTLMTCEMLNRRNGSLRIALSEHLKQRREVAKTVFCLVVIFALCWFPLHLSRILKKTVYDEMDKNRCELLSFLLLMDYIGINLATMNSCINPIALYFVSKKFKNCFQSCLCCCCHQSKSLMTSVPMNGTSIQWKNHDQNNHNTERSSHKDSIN
Assay: Inhibition of endothelin A receptor in New Zealand white rabbit aortic rings assessed as inhibition of endothelin-1-induced vascular contraction at 10^-6 M

Compound | inhibition
CCCOCC(c1ccccc1)(c1ccccc1)C(Oc1nc(C)cc(C)n1)C(=O)O (stereo not drawn) | inactive
C=CCOCC(c1ccccc1)(c1ccccc1)C(Oc1nc(C)cc(C)n1)C(=O)O (stereo not drawn) | 23.4%
CCCC(=O)OCC(c1ccccc1)(c1ccccc1)C(Oc1nc(C)cc(C)n1)C(=O)O (stereo not drawn) | 1.11%
Cc1cc(C)nc(OC(C(=O)O)C(COC(=O)N(C)C)(c2ccccc2)c2ccccc2)n1 (stereo not drawn) | inactive
Cc1cccc(C(=O)OCC(c2ccccc2)(c2ccccc2)C(Oc2nc(C)cc(C)n2)C(=O)O)c1 (stereo not drawn) | inactive
Cc1cc(C)nc(OC(C(=O)O)C(COC(=O)Cc2ccccc2)(c2ccccc2)c2ccccc2)n1 (stereo not drawn) | inactive
CCC(C)(C)C(=O)OCC(c1ccccc1)(c1ccccc1)C(Oc1nc(C)cc(C)n1)C(=O)O (stereo not drawn) | inactive
Cc1cc(C)nc(OC(C(=O)O)C(COC(=O)OC(C)(C)C)(c2ccccc2)c2ccccc2)n1 (stereo not drawn) | inactive
Cc1cc(C)nc(OC(C(=O)O)C(COC(=O)c2cccnc2)(c2ccccc2)c2ccccc2)n1 (stereo not drawn) | 7.82%
CCCCC(=O)OCC(c1ccccc1)(c1ccccc1)C(Oc1nc(C)cc(C)n1)C(=O)O (stereo not drawn) | 5.88%
Cc1cc(C)nc(OC(C(=O)O)C(COC(=O)CCC(=O)O)(c2ccccc2)c2ccccc2)n1 (stereo not drawn) | inactive
CCOCC(c1ccccc1)(c1ccccc1)C(Oc1nc(C)cc(C)n1)C(=O)O (stereo not drawn) | 20.6%
Cc1cc(C)nc(OC(C(=O)O)C(COC(=O)CCc2ccccc2)(c2ccccc2)c2ccccc2)n1 (stereo not drawn) | inactive
Cc1cc(C)nc(OC(C(=O)O)C(COCc2ccccc2)(c2ccccc2)c2ccccc2)n1 (stereo not drawn) | inactive
Cc1ccc(S(=O)(=O)OCC(c2ccccc2)(c2ccccc2)C(Oc2nc(C)cc(C)n2)C(=O)O)cc1 (stereo not drawn) | inactive
COC(=O)OCC(c1ccccc1)(c1ccccc1)C(Oc1nc(C)cc(C)n1)C(=O)O (stereo not drawn) | 3.4%
Cc1cc(C)nc(OC(C(=O)O)C(COC(=O)CC(C)C)(c2ccccc2)c2ccccc2)n1 (stereo not drawn) | 21.8%
COc1ccc(C(=O)OCC(c2ccccc2)(c2ccccc2)C(Oc2nc(C)cc(C)n2)C(=O)O)cc1 (stereo not drawn) | inactive
Cc1cc(C)nc(OC(C(=O)O)C(Cc2ccccc2)(c2ccccc2)c2ccccc2)n1 (stereo not drawn) | 11.8%
CC(=O)OCC(c1ccccc1)(c1ccccc1)C(Oc1nc(C)cc(C)n1)C(=O)O (stereo not drawn) | 9.64%
Cc1cc(C)nc(OC(C(=O)O)C(C#N)(c2ccccc2)c2ccccc2)n1 (racemic) | 42.2%
Cc1cc(C)nc(OC(C(=O)O)C(COC(=O)C(C)(C)C)(c2ccccc2)c2ccccc2)n1 (stereo not drawn) | inactive
Cc1cc(C)nc(OC(C(=O)O)C(COC(=O)OCC(C)C)(c2ccccc2)c2ccccc2)n1 (stereo not drawn) | 13.7%
COC(c1ccccc1)(c1ccccc1)[C@H](Oc1nc(C)cc(C)n1)C(=O)O | 43.2%
Cc1cc(C)nc(OC2C(=O)OCC2(c2ccccc2)c2ccccc2)n1 (stereo not drawn) | 14.3%
Cc1cc(C)nc(OC(C(=O)O)C(COC(=O)CCCC(=O)O)(c2ccccc2)c2ccccc2)n1 (stereo not drawn) | 3.47%
Cc1cc(C)nc(OC(C(=O)O)C(CO)(c2ccccc2)c2ccccc2)n1 (stereo not drawn) | 23.2%

More lines, now with the values ahead:

inhibition | Compound
inactive | COCC(c1ccccc1)(c1ccccc1)C(Oc1nc(C)cc(C)n1)C(=O)O (stereo not drawn)
inactive | CCCCCC(=O)OCC(c1ccccc1)(c1ccccc1)C(Oc1nc(C)cc(C)n1)C(=O)O (stereo not drawn)
8.09% | Cc1cc(C)nc(OC(C(=O)O)C(COC(=O)c2ccccc2)(c2ccccc2)c2ccccc2)n1 (stereo not drawn)
22.5% | COc1ccccc1Oc1c(NS(=O)(=O)c2ccc(C(C)(C)C)cc2)nc(-c2ncccn2)nc1OCCO
5.61% | CCCCCCCC(=O)OCC(c1ccccc1)(c1ccccc1)C(Oc1nc(C)cc(C)n1)C(=O)O (stereo not drawn)
inactive | Cc1cc(C)nc(OC(C(=O)OCc2ccccc2)C(CO)(c2ccccc2)c2ccccc2)n1 (stereo not drawn)
21.7% | CCC(=O)OCC(c1ccccc1)(c1ccccc1)C(Oc1nc(C)cc(C)n1)C(=O)O (stereo not drawn)
15.1% | CCCCOCC(c1ccccc1)(c1ccccc1)C(Oc1nc(C)cc(C)n1)C(=O)O (stereo not drawn)
22% | Cc1cc(C)nc(OC(C(=O)O)C(COC(=O)OC(C)C)(c2ccccc2)c2ccccc2)n1 (stereo not drawn)
13.2% | Cc1cc(C)nc(OC(C(=O)O)C(COC(=O)c2ccncc2)(c2ccccc2)c2ccccc2)n1 (stereo not drawn)
15.5% | CCOC(=O)OCC(c1ccccc1)(c1ccccc1)C(Oc1nc(C)cc(C)n1)C(=O)O (stereo not drawn)
